Test results: patent US11447486B2, “2-amino-benzimidazole derivatives and their use as 5-lipoxygenase and/or prostaglandin E synthase inhibitors” (INSTITUT PASTEUR KOREA, priority 2014, dated 2022)
Where two headings read alike, the source gives them in different places.

Experiments:
[1] = test system: Rat basophilic leukemia (RBL) cells; experiment: LTB4 secretion assay in RBL (rat basophilic leukemia cells); assay type: cell-based
Description: Rat basophilic leukemia (RBL) cells (ATCC, Cat #CRL-2256) were maintained in EMEM (ATCC, Cat #30-2003) supplemented with 15% FBS. The day before RBL assay, cells were seeded at a concentration of 2×10^4 cells per well in 96-well plates. The media was replaced with 100 ul of EMEM supplemented with 0.5% FBS and compounds in dose response(5 nM to 100 uM) were added. After 15 min of pre-incubation at 37° C., arachidonic acid and calcium ionophore (A23187) were added to give a final concentration of 2.5 uM and 5 uM, respectively. After a further 10 min incubation at 37° C., culture supernatant was transferred and quantification of LTB4 was done with a Leukotriene B4 EIA kit (Cayman, Cat #520111) as instructed.

[2] = target: T1, human 5-LOX (Homo sapiens, UniProt P09917); experiment: 5-LOX enzyme activity, fluorescence method (5-HPETE, H2DCFDA); assay type: biochemical; settings: read-out: 5-LO (IC50)
T1 construct: purchased Cayman 60402; host or cells: insect cells (lysate)
T1 sequence (P09917 1-674): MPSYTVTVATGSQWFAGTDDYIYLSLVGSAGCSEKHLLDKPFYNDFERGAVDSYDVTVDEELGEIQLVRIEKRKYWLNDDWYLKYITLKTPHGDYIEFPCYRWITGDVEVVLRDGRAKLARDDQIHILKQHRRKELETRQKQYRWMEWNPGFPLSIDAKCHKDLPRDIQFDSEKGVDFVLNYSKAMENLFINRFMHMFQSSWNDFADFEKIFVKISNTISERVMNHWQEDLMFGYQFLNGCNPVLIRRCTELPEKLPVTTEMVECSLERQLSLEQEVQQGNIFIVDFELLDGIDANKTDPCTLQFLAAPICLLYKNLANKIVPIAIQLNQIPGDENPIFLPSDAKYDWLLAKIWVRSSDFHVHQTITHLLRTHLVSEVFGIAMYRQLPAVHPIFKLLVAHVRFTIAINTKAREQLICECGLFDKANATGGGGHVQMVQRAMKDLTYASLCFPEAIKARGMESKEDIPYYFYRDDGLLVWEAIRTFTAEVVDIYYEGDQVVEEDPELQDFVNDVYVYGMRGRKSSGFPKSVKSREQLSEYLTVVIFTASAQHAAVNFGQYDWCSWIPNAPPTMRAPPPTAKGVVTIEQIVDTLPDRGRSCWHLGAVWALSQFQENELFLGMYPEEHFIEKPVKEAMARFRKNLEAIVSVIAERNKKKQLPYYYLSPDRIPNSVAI
Description: The activity of compounds against 5-LOX were determined by measuring LTB4 (leukotriene B4) levels and/or by a fluorescence method. Both approaches are outlined in more detail below;
The compound, in a dose response manner(0.5 nM to 10 uM), and enzyme mixture was pre-incubated for 5 minutes, and the enzymatic reaction was initiated by addition of ATP and arachidonic acid to a final concentration of 100 uM and 3 uM, respectively. […] All steps were carried out at room temperature.

Row | EC50 ([1]; Rattus norvegicus, RBL) | IC50 [2] | EC50 [1] | Compound
1 | < 10 µM | < 1 µM |  | Cn1c(NCc2ccc(Oc3ccc(Cl)cn3)cc2)nc2ccc(N)cc21 [Compound 210]
2 | 10 to 20 µM | < 1 µM |  | Cn1c(NCc2ccc(Oc3nccc4cc(Cl)ccc34)cc2)nc2ccc(NC3COC3)cc21 [Compound 439]
3 | > 20 µM | 1 to 10 µM |  | Nc1ccc2[nH]c(NC(=O)c3ccc(F)cc3)nc2c1 [Compound 26]
4 | 10 to 20 µM | > 10 µM |  | Nc1ccc2nc(-n3cc(F)cn3)n(CCOc3ccc(OC(F)(F)F)cc3)c2c1 [Compound 78]
5 | < 10 µM | < 1 µM |  | Cn1c(NCc2ccc(Oc3ccc(Cl)cn3)cc2Cl)nc2ccc(N)cc21 [Compound 285]
6 | > 20 µM | < 1 µM |  | Cn1c(N2CCC(c3ccc(OC(F)(F)F)cc3)CC2)nc2ccc(N)cc21 [Compound 157]
7 | < 10 µM | < 1 µM |  | Nc1ccc2nc(NCCO)n(Cc3ccc(Oc4ccc(Cl)cn4)cc3)c2c1 [Compound 250]
8 | < 10 µM | < 1 µM |  | Cn1c(NCc2ccc(Oc3ncc(Cl)cc3F)cc2)nc2ccc(N)cc21 [Compound 323]
9 |  | > 10 µM | < 10 µM | CCn1c(NCc2ccc(Oc3ncc(Cl)cn3)cc2)nc2ccc(Nc3cc(C(F)(F)F)n(C)n3)cc21 [Compound 510]
10 | < 10 µM | > 10 µM |  | CCC(Nc1nc2ccc(Nc3cc(C(F)(F)F)n(C)n3)cc2n1C)c1ccc(Oc2cnc(C(F)(F)F)cn2)cc1 (stereo not shown) [Compound 522]
11 | < 10 µM | < 1 µM |  | Cn1nc(CF)cc1Nc1ccc2nc(NCc3ccc(Oc4ncc(Cl)cn4)cc3)n(C)c2c1 [Compound 539]
12 | 10 to 20 µM | < 1 µM |  | Cn1c(NCc2ccc(Oc3ccnc4c(Cl)cccc34)cc2)nc2ccc(NC3COC3)cc21 [Compound 388]
13 | < 10 µM | < 1 µM |  | Cc1cc(CNc2nc3ccc(N)cc3n2C)ccc1Oc1ccc(Cl)cn1 [Compound 282]
14 | < 10 µM | < 1 µM |  | OCCn1c(NCc2ccc(Oc3ccc(Cl)cn3)cc2)nc2ccc(NC3COC3)cc21 [Compound 257]
15 | > 20 µM | 1 to 10 µM |  | Cn1c(NCN2CC(Cc3ccccc3)OC2=O)nc2ccc(N)cc21 (stereo not shown) [Compound 174]
16 | < 10 µM | < 1 µM |  | Cn1c(NCc2ccc(Oc3ncc4cc(Cl)ccc4n3)cc2)nc2ccc(NC3COC3)cc21 [Compound 406]
17 | < 10 µM | < 1 µM |  | CN(c1ccc(CNc2nc3ccc(N)cc3n2C)cc1)c1ncc(Cl)cn1 [Compound 463]
18 | < 10 µM | < 1 µM |  | CN(C)c1nc2ccc(NCc3ccc(N(Cc4ncc[nH]4)c4ccc(F)cc4)cc3)cc2[nH]1 [Compound 216]

The next lines start with the molecule.

Row | Compound | EC50 ([1]; Rattus norvegicus, RBL) | IC50 [2] | EC50 [1]
19 | CCN(CC)c1nc2cc(N)ccc2n1CCc1ccc(F)cc1 [Compound 47] | > 20 µM | > 10 µM | 
20 | Cn1c(NCCOc2ccc(Cl)c(Cl)c2)nc2cc(N)ccc21 [Compound 61] | 10 to 20 µM | < 1 µM | 
21 | Cn1c(NCc2ccc(Oc3ccccn3)cc2)nc2ccc(NC3COC3)cc21 [Compound 347] | < 10 µM | < 1 µM | 
22 | COc1nc(Oc2ccc(CNc3nc4ccc(N)cc4n3C)cc2)ncc1Cl [Compound 454] | 10 to 20 µM | < 1 µM | 
23 | CN(C)c1nc2cc(NCc3coc(Nc4ccc(Cl)cc4)n3)ccc2[nH]1 [Compound 214] | < 10 µM | < 1 µM | 
24 | Cn1c(NCc2ccc(Oc3cc(Cl)ncn3)cc2)nc2ccc(N)cc21 [Compound 393] | < 10 µM | < 1 µM | 
25 | Cc1cc(CNc2nc3ccc(N)cc3n2C)cc(C)c1Oc1ncc(Cl)cn1 [Compound 411] | > 20 µM | < 1 µM | 
26 | CN(C(=O)c1ccc(CNc2nc3ccc(NC4COC4)cc3n2C)cc1)c1ccc(Cl)cn1 [Compound 320] | > 20 µM | < 1 µM | 
27 | Cn1c(NCc2ccc(Oc3ccc(Cl)cn3)cc2)nc2ccc(NC(C)(C)CO)cc21 [Compound 325] | < 10 µM | < 1 µM | 
28 | COc1ccc(Oc2ccc(CNc3nc4ccc(N)cc4n3C)cc2)nc1 [Compound 330] | < 10 µM | < 1 µM | 
29 | Nc1ccc2nc(N)n(Cc3ccc(Oc4ccc(Cl)cc4)nc3)c2c1 [Compound 240] | < 10 µM | < 1 µM | 
30 | Cn1c(NCCOc2ccc(Cl)c(Cl)c2)nc2ccc(N)cc21 [Compound 60] | < 10 µM | < 1 µM | 
31 | Cn1c(NCc2ccc(Oc3cccnc3)cc2)nc2ccc(N)cc21 [Compound 224] | < 10 µM | < 1 µM | 
32 | Cn1c(NCc2ccc(Oc3ncc4c(Cl)cccc4n3)cc2)nc2ccc(NC3COC3)cc21 [Compound 435] | < 10 µM | < 1 µM | 
33 | Cn1c(NCc2ccc(Oc3ccc4c(Cl)cccc4n3)cc2)nc2ccc(N)cc21 [Compound 424] | < 10 µM | < 1 µM | 
34 | CC(Nc1ccc2[nH]c(N(C)C)nc2c1)c1ccc(Oc2ccc(Cl)cc2)cc1 (stereo not shown) [Compound 131] | < 10 µM | < 1 µM | 
35 | COc1ccc(Oc2ccc(CNc3nc4ccc(NC5COC5)cc4n3C)cc2)nc1 [Compound 331] | < 10 µM | < 1 µM | 
36 | Cc1cc(Nc2ccc3nc(NC4(c5ccc(Oc6ncc(Cl)cn6)cc5)CC4)n(C)c3c2)n[nH]1 [Compound 478] | < 10 µM | < 1 µM | 
37 | CC(C)(C(=O)c1ccc(CNc2nc3ccc(N)cc3[nH]2)cc1)C(F)(F)F [Compound 205] | < 10 µM | < 1 µM | 

Row | Compound | EC50 ([1]; Rattus norvegicus, RBL) | IC50 [2] | EC50 [1]
38 | Cn1c(NCc2ccc(Oc3ccc(Cl)cn3)cc2)nc2ccc(NC(C)(C)C(=O)O)cc21 [Compound 326] | < 10 µM | < 1 µM | 
39 | Cn1c(NCc2ccc(Oc3ccccn3)cc2)nc2ccc(N)cc21 [Compound 346] | < 10 µM | < 1 µM | 
40 | Cn1c(NCc2ccc(Oc3ccc(Cl)cn3)cc2F)nc2ccc(N)cc21 [Compound 272] | < 10 µM | < 1 µM | 
41 | Cn1c(NCc2ccc(Oc3ccc(Cl)cc3)cn2)nc2ccc(N)cc21 [Compound 297] | < 10 µM | < 1 µM | 
42 | CC(Nc1nc2ccc(N)cc2n1C)c1ccc(Oc2ccc(Cl)cn2)cc1 (stereo not shown) [Compound 260] | < 10 µM | < 1 µM | 
43 | Cn1c(NCc2ccc(Oc3cnc(Cl)nc3)cc2)nc2ccc(N)cc21 [Compound 340] | < 10 µM | < 1 µM | 
44 | Cn1c(NCc2ccc(Oc3ncc(N)cn3)cc2)nc2ccc(N)cc21 [Compound 376] | > 20 µM | < 1 µM | 
45 | Cn1c(NCc2ccc(Oc3ccc4cc(F)ccc4n3)cc2)nc2ccc(N)cc21 [Compound 382] | < 10 µM | < 1 µM | 
46 | Cn1c(NCc2ccc(Oc3ncc(Cl)cn3)cc2)nc2ccc(NCC(O)c3ccc(F)cc3)cc21 (stereo not shown) [Compound 372] | < 10 µM | < 1 µM | 
47 | Cc1cc(Nc2cc(Cl)c3nc(NCc4ccc(Oc5ncc(Cl)cn5)cc4)n(C)c3c2)n[nH]1 [Compound 556] | < 10 µM | < 1 µM | 
48 | Nc1ccc2nc(NCc3ccc(Oc4ccc(Cl)cn4)cc3)n(CCO)c2c1 [Compound 259] | < 10 µM | < 1 µM | 
49 | Nc1ccc2nc(N3CCC(F)(F)C3)n(CCOc3ccc(OC(F)(F)F)cc3)c2c1 [Compound 100] | < 10 µM | < 1 µM | 
50 | Nc1ccc2nc(N)n(Cc3ccc(Oc4ccc(Cl)cn4)c(Cl)c3)c2c1 [Compound 255] | < 10 µM | < 1 µM | 
51 | COC(c1ccc(CNc2nc3ccc(N)cc3[nH]2)cc1)c1ccccn1 (stereo not shown) [Compound 181] | > 20 µM | < 1 µM | 
52 | Nc1ccc2nc(NCc3ccc4c(c3)NCCC4)[nH]c2c1 [Compound 162] | < 10 µM | < 1 µM | 
53 | CCn1c(NCc2ccc(Oc3ncc(C(F)(F)F)cn3)cc2)nc2ccc(Nc3cc(C(F)(F)F)n(C)n3)cc21 [Compound 521] | < 10 µM | 1 to 10 µM | 
54 | Cn1c(NCc2ccc(Oc3ncc(Cl)cn3)cc2)nc2ccc(NCc3ncccn3)cc21 [Compound 365] | < 10 µM | < 1 µM | 
55 | Cc1cc(Nc2ccc3nc(NCc4ccc(Oc5ncc(Cl)cn5)cc4)[nH]c3c2)n[nH]1 [Compound 484] |  | < 1 µM | > 20 µM
56 | Nc1nc2ccc(N3CC(F)(F)C3)cc2n1Cc1ccc(Oc2ccc(Cl)cn2)cc1 [Compound 235] | < 10 µM | > 10 µM | 
